Data taken from article PMC7582705, “Structure-Based Discovery of Novel Chemical Classes of Autotaxin Inhibitors” (International Journal of Molecular Sciences, 2020).
Like-named read-outs stand apart in the source and are kept apart here.

Assays:
[1] = target: T1, ATX (Homo sapiens, UniProt Q13822); conditions: LPC assay; cited from earlier work
[2] = target: T2, mouse ATX (Mus musculus, UniProt Q9R1E6); test: Amplex Red Lyso-phospholipase D assay, mouse ATX; type: biochemical
T2 construct: purchased Sino Biological
Method: All compounds proposed were assessed for their ATX inhibitory activity in vitro using the Amplex Red assay. The Amplex Red Lyso-phospholipase D assay is a fluorometry-based assay providing a sensitive method for measuring Lyso-phospholipase D (ATX) activity in vitro. In this enzyme-coupled assay, ATX activity is monitored indirectly using 10-acetyl-3,7-dihydrophenoxazine (Amplex Red reagent), a sensitive fluorogenic probe for H2O2. ATX initially cleaves the Lysophosphatidylcholine (LPC) substrate to yield choline and Lysophosphatidic acid (LPA), while choline gets subsequently oxidized by choline oxidase to betaine and H2O2. Lastly, H2O2, in the presence of horseradish peroxidase (HRP), reacts with Amplex Red reagent in a 1:1 stoichiometry to generate the highly fluorescent product resorufin.
The inhibition assay was performed as previously described with some modifications in order to accommodate the newly-discovered lag phase in ATX kinetics. To this end, and in order to provide adequate time to the hydrolysis of LPC by ATX, we added a 30min incubation period between ATX, inhibitors and LPC. Briefly, 2 μL of different concentrations of inhibitors diluted in DMSO (Sigma-Aldrich, St. Louis, MO, USA) were incubated with 50 µL of ATX 8 nM (human or mouse ATX from Sino Biological), and 48 µL reaction buffer (50 mM Tris-Cl pH 8.0 from Thermo Fisher Scientific, Waltham, MA, USA and 5 mM CaCl2 from Honeywell-Fluka, Charlotte, NC, USA) in a black 96-well microplate for 15 min at 37 °C. Thence, another 50 µL of reaction buffer with 200 μM LPC substrate 16:0 (Avanti Polar Lipids Inc, Alabaster, AL, USA) (final concentrations of LPC and ATX are 50 µM and 2 nM, respectively) was added to the reaction mixture and incubated for 30 min at 37 °C in order for ATX to convert LPC to LPA and choline. Finally, 50 µL of working solution containing 200 μM Amplex Red (Invitrogen, Carlsbad, CA, USA), 4 U/mL HRP (Sigma-Aldrich, St. Louis, MO, USA), 0.4 U/mL choline oxidase (Sigma-Aldrich, St. Louis, MO, USA) in 50 mM Tris-HCl pH 8.0 and 5 mM CaCl2 was added to measure the produced choline. The reaction was monitored at 37 °C in a fluorescence plate reader using excitation at 530 nm and reading at 590 nm, every 5 min for 30 min. The velocity of the reaction and the remaining activity of ATX were calculated at the linear phase of the reaction and dose-response inhibition graphs were plotted with GraphPad Software (GraphPad Software, San Diego, CA, USA). […] In order to evaluate a possible effect of the compounds on the second (choline oxidase) and third (HRP) enzymes of the Amplex Red assay, we also performed the assay in the absence of ATX but in the presence of the compounds. Instead of ATX, we added choline chloride at a final concentration of 2 µM so as the second and third steps of the assay could proceed normally.

[3] = target: T2, mouse ATX; test: Mode of inhibition, modified Amplex assay, Lineweaver-Burk plots; type: biochemical; conditions: various LPC and inhibitor concentrations
Method: Lastly, to get insight into the mode of inhibition of the new ATX inhibitors developed in the present study, the Lineweaver–Burk plots were performed.
To determine the mode of inhibition of ATX by each inhibitor, a modified Amplex assay was employed. […] Mouse ATX from Sino Biological was used in all mode of inhibition assays. Thereafter, the velocity (V) of the reaction was calculated and the reciprocal of velocity (1/V) was plotted against the reciprocal of substrate concentration (1/S) in Lineweaver–Burk graphs using GraphPad Software (GraphPad Software, San Diego, CA, USA).

[4] = target: T1, ATX; test: IC50 Eleanna (Table S2, method not described); type: biochemical; conditions: Table S2; read-out: IC50 Eleanna
[5] = Solubility (Table S1); conditions: YES/NO
[6] = target: T1, ATX; test: Amplex Red Lyso-phospholipase D assay, human ATX; type: biochemical; set-up: purchased Sino Biological; conditions: for inhibition at 30 µM: Table S2, at 30uM, read-out: %inhibition at 30uM
[7] = target: phosphodiesterase (PDE); test: Phosphodiesterase (PDE) colorimetric assay, 3',5'-cAMP and 3',5'-cGMP as substrates; type: biochemical
Text: This colorimetric assay kit uses 3′,5′-cAMP and 3′,5′-cGMP as substrates, and it is useful for the screening of inhibitors of nucleotide phosphodiesterase activity.

[8] = target: T1, ATX; conditions: cited from earlier work
[9] = recombinant mouse ATX 2 nM, LPC 16:0 substrate, Amplex Red, read-out: IC50 mATX
[10] = recombinant human ATX 2 nM, LPC 16:0 substrate, Amplex Red, read-out: IC50 hATX

| SMILES | IC50 [2, 9] [µM] | Mode of Inhibition [3] | IC50 [4] [µM] | inhibition at 30 µM [6] [%] | IC50 [6, 10] [µM] | also measured |
| --- | --- | --- | --- | --- | --- | --- |
| CCCCCCCCCCCCCC(=O)Nc1ccc(CP(=O)(O)O)cc1 [Compound S32826] | – | – | – | – | – | IC50 [1]: 0.0056 µM |
| COc1cccc(NC(=S)N2CCn3cccc3C2c2ccc(OC)c(OC)c2)c1 (stereo not shown) [KM-26, 1-(3,4-dimethoxyphenyl)-N-(3-methoxyphenyl)-3,4-dihydro-1H-pyrrolo[1,2-a]pyrazine-2-carbothioamide] | 7.4 | competitive | 0.8 | 83.3 | 5.6 | IC50 [7]: 2.8 µM; activity against PDE ([7]; in words): outstanding activity |
| N[C@@H](Cc1c[nH]cn1)C(=O)O [L-Histidine] | – | – | – | – | – | IC50 (ATX inhibition) [8]: millimolar range |
| O=C(CCN1CCN(C(=O)OCc2cc(Cl)cc(Cl)c2)CC1)c1ccc2[nH]c(=O)oc2c1 [PF-8380, 3,5-Dichlorobenzyl 4-(3-oxo-3-(2-oxo-2,3-dihydrobenzo[d]oxazol-6-yl)propyl)piperazine-1-carboxylate, reference compound] | – | competitive | – | – | – | IC50 [7]: 0.0011 µM; Solubility [5]: YES |

Further lines, with some results ahead:

| IC50 [2, 9] [µM] | Mode of Inhibition [3] | IC50 [4] [µM] | inhibition at 30 µM [6] [%] | IC50 [6, 10] [µM] | SMILES | also measured |
| --- | --- | --- | --- | --- | --- | --- |
| 14.9 | competitive | 0.5 | 43.6 | 30.5 | CCOC(=O)c1sc(SCc2ccccc2)c2c1CC(c1ccc(C)cc1)CC2O (stereo not shown) [KM03601, ethyl 3-benzylsulfanyl-4-hydroxy-6-(4-methylphenyl)-4,5,6,7-tetrahydro-2-benzothiophene-1-carboxylate] | IC50 ([2]; in vitro IC50 (mATX 2nM), Table S2, mATX 2nM): 15 µM; Solubility [5]: YES; IC50 ([6]; in vitro IC50 (Sino hATX 2nM), Table S2, Sino hATX 2nM): 30.6 µM; IC50 ([6]; in vitro IC50 (hATX 1nM), Table S2, hATX 1nM): 10 µM |
| 6.5 | mixed | 0.5 | 69.8 | 14.6 | CCOC(=O)C1CCN(C(=O)Cc2c(Sc3ccc(Cl)cc3)[nH]c3ccccc23)CC1 [KM-24, ethyl 1-[2-[2-(4-chlorophenyl)sulfanyl-1H-indol-3-yl]acetyl]piperidine-4-carboxylate] | – |
| 4 | uncompetitive | 2.3 | 70.6 | 13.6 | Cc1[nH]c2ccccc2c1C1=CCN(S(=O)(=O)c2cccc3nsnc23)CC1 [SC-41, 4-{[4-(2-Methyl-1H-indol-3-yl)-3,6-dihydropyridin-1(2H)-yl]sulfonyl}-2,1,3-benzothiadiazole] | – |
